These results are taken from ChEMBL document CHEMBL4229435, “Synthesis and antimicrobial activity of β-carboline derivatives with N2-alkyl modifications” (2018).

What all share (assay type): functional
The subject of assay [1] is Staphylococcus aureus. Description: Antimicrobial activity against methicillin-sensitive Staphylococcus aureus ATCC 25923 after 24 hrs by agar plate dilution method. The note with it: ATCC 25923, 24 h.
Assay [2] deals with Escherichia coli. Description: Antimicrobial activity against Escherichia coli ATCC 25922 after 24 hrs by agar plate dilution method. The note with it: ATCC 25922, 24 h.
Assay [3] deals with Candida albicans. Description: Antimicrobial activity against Candida albicans GAI 05108 after 24 hrs by agar plate dilution method. The note with it: GAI 05108, 24 h.
Assay [4] has as its system [Candida] intermedia. Nature of the assay: Antimicrobial activity against Candida intermedia GAI 15003 after 24 hrs by agar plate dilution method. The note with it: Sungouiella intermedia, GAI 15003, 24 h.
The subject of assay [5] is Pichia kudriavzevii. Description: Antimicrobial activity against Candida krusei ATCC 14243 after 24 hrs by agar plate dilution method. The note with it: ATCC 14243, 24 h.
Assay [6] concerns Staphylococcus aureus. Nature of the assay: Antimicrobial activity against methicillin-resistant Staphylococcus aureus GAI 11112 after 24 hrs by agar plate dilution method. The note with it: GAI 11112, 24 h.
Assay [7] concerns Staphylococcus aureus. Description: Antimicrobial activity against methicillin-resistant Staphylococcus aureus GAI 10151 after 24 hrs by agar plate dilution method. The note with it: GAI 10151, 24 h.
Assay [8] deals with Staphylococcus aureus. Nature of the assay: Antimicrobial activity against methicillin-resistant Staphylococcus aureus GAI 10152 after 24 hrs by agar plate dilution method. The note with it: GAI 10152, 24 h.
Assay [9] deals with Staphylococcus aureus. Description: Antimicrobial activity against methicillin-resistant Staphylococcus aureus GAI 10153 after 24 hrs by agar plate dilution method. The note with it: GAI 10153, 24 h.
Assay [10] deals with Pseudomonas aeruginosa. Nature of the assay: Antimicrobial activity against Pseudomonas aeruginosa GAI 12066 after 24 hrs by agar plate dilution method. The note with it: GAI 12066, 24 h.
Assay [11] concerns Acinetobacter baumannii. Nature of the assay: Antimicrobial activity against Acinetobacter baumannii GAI 07545 after 24 hrs by agar plate dilution method. The note with it: GAI 07545, 24 h.

Broadly, the MIC is the least concentration at which growth counts as inhibited. A low value points to greater potency.

In brackets after ≈: the same amount, converted by molar mass.

In the case of `C[n+]1ccc2c3ccccc3n(-n3c4ccccc4c4cc[n+](C)cc43)c2c1`, the MIC in assay [1] is 125 µM; in [2], 1000 µM; in [3], 500 µM; in assay [4], 125 µM; in assay [5] it was 500 µM; in assay [6] it was 125 µM.

As for `Clc1ccc2c(c1)c1cc[n+](Cc3ccccn3)cc1n2-n1c2ccc(Cl)cc2c2cc[n+](Cc3ccccn3)cc21`, the MIC in [1], in [7], in assay [8], in assay [9], in [2] and in [10] was > 1000 µM in each case. Moreover, the MIC in assay [11] was > 1000 µM; in assay [3], > 1000 µM; in [4], 500 µM; in [5], > 1000 µM.

Consider `Clc1ccc2c(c1)c1cc[n+](Cc3ccccc3)cc1n2-n1c2ccc(Cl)cc2c2cc[n+](Cc3ccccc3)cc21`, for which the MIC in assay [1] is 10 µM; in assay [7], 50 µM; in [8], 10 µM; in [9] it was 10 µM; in assay [2], 500 µM; in [10], > 1000 µM. Moreover, the MIC in assay [11] is 500 µM; in assay [3], 500 µM; in assay [4], 10 µM; in assay [5] it was 500 µM.

With `C[n+]1ccc2c3cc(Cl)ccc3n(-n3c4ccc(Cl)cc4c4cc[n+](C)cc43)c2c1`, the MIC in [1] was 50 µM; in assay [7], 500 µM; in [8], 50 µM; in assay [9], 50 µM; in assay [2], 500 µM; in [10], > 1000 µM. Besides, the MIC in assay [11] is > 1000 µM; in assay [3], > 1000 µM; in assay [4] it was 50 µM; in assay [5] it was 500 µM.

Take `c1ccc2c(c1)c1ccncc1n2-n1c2ccccc2c2ccncc21`: the MIC in [1] is > 1000 µM; in assay [2] it was > 1000 µM; in assay [3], > 1000 µM; in assay [4] it was 125 µM (≈ 41.8 µg/mL); in assay [5] it was > 1000 µM; in assay [6] it was > 1000 µM.

Regarding `Clc1ccc2[nH]c3c[n+](Cc4ccccn4)ccc3c2c1`, the MIC in assay [1], in [7], in assay [8], in [9], in [2] and in [10] was > 1000 µM each time. Besides, the MIC in assay [11] was > 1000 µM; in assay [3], > 1000 µM; in [4] it was 500 µM; in [5] it was > 1000 µM.

On to `C[n+]1ccc2c(c1)[nH]c1ccccc12`, for which the MIC in [1] was > 1000 µM; in [2] it was 1000 µM; in assay [3], 500 µM; in assay [4], 125 µM; in [5], 125 µM; in assay [6], 1000 µM.

Take `Clc1ccc2[nH]c3c[n+](Cc4ccccc4)ccc3c2c1`: the MIC is > 1000 µM in assay [1]; 500 µM in assay [7]; 500 µM in [8]; 500 µM in assay [9]; > 1000 µM in assay [2]; > 1000 µM in assay [10]. For the same compound, the MIC in assay [11] was 500 µM; in assay [3], > 1000 µM; in assay [4] it was 10 µM; in assay [5] it was 500 µM.

As for `c1ccc2c(c1)[nH]c1cnccc12` [NORHARMANE], the MIC in assay [1] is > 1000 µM; in assay [2] it was 250 µM (≈ 42 µg/mL); in [3], 125 µM (≈ 21 µg/mL); in assay [4], 125 µM (≈ 21 µg/mL); in [5], 125 µM (≈ 21 µg/mL); in assay [6], 250 µM (≈ 42 µg/mL).

`C[n+]1ccc2c(c1)[nH]c1ccc(Cl)cc12` [NOSTOCARBOLINE]: the MIC in assay [1] was > 1000 µM; in assay [7], > 1000 µM; in [8] it was > 1000 µM; in [9], > 1000 µM; in assay [2], 500 µM; in [10] it was > 1000 µM. In addition, the MIC in [11] was > 1000 µM; in [3], > 1000 µM; in [4] it was > 1000 µM; in assay [5] it was 50 µM.
